Results: EPA's ToxRefDB 2

Key:
[1] = system: rat; settings: Multigenerational reproductive toxicity study, wistar, Oral, Feed, dose end: 2 generation
[2] = system: rat; settings: Multigenerational reproductive toxicity study, sprague dawley, Oral, Feed, dose end: 2 generation
[3] = system: rat; settings: Multigenerational reproductive toxicity study, wistar, Oral, Feed, dose end: 2 generation; remark: listed apart in the source
[4] = system: rat; settings: Subchronic oral toxicity in rodents, wistar, Feed, dose end: 90 day, group: systemic, systemic / pathology gross / adrenal gland / discolored + systemic / pathology gross / adrenal gland / enlarged + systemic / pathology …
[5] = system: rat; settings: Chronic toxicity; wistar; Oral; Feed; dose end: 104 week; group: systemic; systemic / pathology microscopic / eye / degeneration + systemic / pathology microscopic / prostate / fibrosis + systemic / pathology …
[6] = system: rat; settings: Prenatal developmental toxicity study, wistar, Dermal, Topical, dose end: 19 GD
[7] = system: dog; settings: Subchronic oral toxicity in nonrodent, beagle, Feed, dose end: 6 month, group: systemic
[8] = group: offspring, systemic / organ weight / liver / absolute
[9] = group: parental, systemic / organ weight / epididymis / absolute + systemic / organ weight / adrenal gland / absolute
[10] = group: offspring, developmental / developmental landmark / nipple development / nipple development + developmental / developmental landmark / preputial …
[11] = group: parental, systemic / organ weight / epididymis / absolute + systemic / organ weight / epididymis / relative to body weight + systemic / organ weight…
[12] = group: reproductive, reproductive / reproductive performance / fertility / fertility
[13] = group: offspring, systemic / organ weight / adrenal gland / absolute + systemic / organ weight / liver / absolute
[14] = group: parental, systemic / organ weight / epididymis / absolute
[15] = group: reproductive, reproductive / reproductive performance / fertility / fertility + reproductive / offspring survival early / birth index / live birth index
[16] = group: developmental, developmental / developmental landmark / anogenital distance (agd) / anogenital distance (agd)
[17] = group: developmental, developmental / developmental landmark / anogenital distance (agd) / anogenital distance (agd) + developmental / developmental malformation…
[18] = group: maternal, systemic / organ weight / adrenal gland / absolute
[19] = group: maternal, systemic / organ weight / adrenal gland / absolute + systemic / organ weight / liver / absolute
[20] = systemic / organ weight / adrenal gland / absolute + systemic / organ weight / adrenal gland / relative to body weight + systemic / clinical…

For `C=CC1(C)OC(=O)N(c2cc(Cl)cc(Cl)c2)C1=O` (configuration not stated) [Vinclozolin], the LEL [1, 8] was 4.1 mg/kg/day, the LOAEL [1, 8] was > 4.1 mg/kg/day and the NEL [1, 8] was 2 mg/kg/day. For the same molecule, the NOAEL [1, 8] was ≥ 4.1 mg/kg/day, the LEL [1, 9] was 2 mg/kg/day and the LOAEL [1, 9] was > 4.1 mg/kg/day. For the same molecule, the NEL [1, 9] was < 2 mg/kg/day, the NOAEL [1, 9] was ≥ 4.1 mg/kg/day and the LEL [2, 10] was 14.8 mg/kg/day. It also gave an LOAEL [2, 10] of 14.8 mg/kg/day, an NEL [2, 10] of 3 mg/kg/day and an NOAEL [2, 10] of 3 mg/kg/day. The LOAEL [2, 11] was 14.8 mg/kg/day, the NOAEL [2, 11] was 3 mg/kg/day and the LEL ([2]; group: parental, systemic / pathology microscopic / adrenal gland / [other] + systemic / pathology microscopic / liver / hypertrophy) was 11.5 mg/kg/day. For the same molecule, the NEL ([2]; group: parental, systemic / pathology microscopic / adrenal gland / [other] + systemic / pathology microscopic / liver / hypertrophy + systemic / clinical …) was 2.34 mg/kg/day, the LEL [2, 12] was 74.7 mg/kg/day and the LOAEL [2, 12] was > 74.7 mg/kg/day. For the same molecule, the NEL [2, 12] was 14.8 mg/kg/day, the NOAEL [2, 12] was ≥ 74.7 mg/kg/day and the LEL [3, 13] was 30 mg/kg/day. The LOAEL [3, 13] was 30 mg/kg/day, the NEL [3, 13] was 4.9 mg/kg/day and the NOAEL [3, 13] was 4.9 mg/kg/day. The LEL [3, 14] was 4.9 mg/kg/day, the LOAEL [3, 14] was 4.9 mg/kg/day and the NEL [3, 14] was < 4.9 mg/kg/day. The NOAEL [3, 14] was < 4.9 mg/kg/day, the NEL [3, 12] was 101 mg/kg/day and the LEL [3, 15] was 290 mg/kg/day. For the same molecule, the LOAEL [3, 15] was > 290 mg/kg/day, the NOAEL [3, 15] was ≥ 290 mg/kg/day and the LEL [4] was 24 mg/kg/day. The LOAEL [4] was 24 mg/kg/day, the NEL [4] was 4.4 mg/kg/day and the NOAEL [4] was 4.4 mg/kg/day. For the same molecule, the LEL [5] was 7 mg/kg/day, the LOAEL [5] was 7 mg/kg/day and the NEL [5] was < 7 mg/kg/day. The NOAEL [5] was < 7 mg/kg/day, the LEL [6, 16] was 180 mg/kg/day and the LOAEL [6, 16] was 180 mg/kg/day. The NEL [6, 17] was 60 mg/kg/day, the NOAEL [6, 17] was 60 mg/kg/day and the LEL [6, 18] was 180 mg/kg/day. It also gave an LOAEL [6, 18] of 180 mg/kg/day, an NEL [6, 19] of 60 mg/kg/day and an NOAEL [6, 19] of 60 mg/kg/day. It also gave an LOAEL ([7]; systemic / organ weight / adrenal gland / absolute + systemic / organ weight / adrenal gland / relative to body weight) of 7.5 mg/kg/day, an NEL [7, 20] of 2.5 mg/kg/day and an NOAEL [7, 20] of 2.5 mg/kg/day. It also gave an LEL ([7]; systemic / organ weight / adrenal gland / absolute + systemic / organ weight / adrenal gland / relative to body weight + systemic / organ …) of 7.5 mg/kg/day.
